From patent US9814699B2, “Chemical compounds” (Janssen Pharmaceuticals, Inc., priority 2009, dated 2017)

Experiments:
[1] = tested on: HCV genotype 1a subgenomic replicon; assay: HCV replicon assay, genotype 1a subgenomic replicon (luciferase); assay type: cell-based; settings: Hepatitis C virus; genotype 1a replicon stable cell line, luciferase activity measured 48 hours later; read-out: Replicon 1A pEC50 (converted)
Method: (§1) Protocol for Testing and Data Analysis of Compounds in the HCV Replicon Assay
(§2) Compounds were assayed for activity against HCV using the genotype 1a and 1b subgenomic replicon model systems. Stable cell lines bearing the genotype 1a and 1b replicons were used for screening of compounds. Both replicons are bicistronic and contain the firefly luciferase gene. The ET cell line is stably transfected with RNA transcripts harboring a I389luc-ubi-neo/NS3-3′/ET replicon with firefly luciferase-ubiquitin-neomycin phosphotransferase fusion protein and EMCV-IRES driven NS3-5B polyprotein containing the cell culture adaptive mutations (E1202G; T1280I; K1846T) (Krieger at al, 2001 and unpublished). The genotype 1a replicon is a stable cell line licensed from Apath LLC, modified to contain the firefly luciferase gene. The cells were grown in DMEM, supplemented with 10% fetal calf serum, 2 mM Glutamine, Penicillin (100 IU/mL)/Streptomycin (100 μg/mL), 1× nonessential amino acids, and 250-500 μg/mL G418 (“Geneticin”). They were all available through Life Technologies (Bethesda, Md.). The cells were plated at 5×10^3 cells/well in 384 well plates containing compounds. The final concentration of compounds ranged between 0.03 pM to 50 μm and the final DMSO concentration of 0.5-1%.
(§3) Luciferase activity was measured 48 hours later by adding a Steady glo reagent (Promega, Madison, Wis.). Percent inhibition of replication data was plotted relative to no compound control. Under the same condition, cytotoxicity of the compounds was determined using cell titer glo (Promega, Madison, Ws). EC50s were determined from an 11 point dose response curve using 3-4-fold serial dilution for each compound, which spans a concentration range >1000 fold. The level of inhibition for each compound was determined with Activity Base or with BioAssay plus the Excel XC50 module. Percent inhibition was determined with the following equation where the cross-talk corrected value is the value from the test well, the compound positive control mean is the average value of the wells with no compound present, and the DMSO negative control mean is the average value of the wells with DMSO but no cells present.
(§4) [formula] These normalized values are exported to EC50 where they are plotted against the molar compound concentrations using the standard four parameter logistic equation: […]

[2] = tested on: HCV genotype 1b subgenomic replicon; assay: HCV replicon assay, genotype 1b subgenomic replicon (ET cell line, luciferase); assay type: cell-based; settings: Hepatitis C virus; genotype 1b replicon ET cell line, luciferase activity measured 48 hours later; read-out: Replicon 1B pEC50 (converted)
Method: as §1, §2, §3, §4

Row | SMILES | EC50 [1] | EC50 [2]
1 | CC[C@H](NC(=O)OC)C(=O)N1CC2(C[C@H]1c1nc(-c3ccc(-c4ccc(-c5c[nH]c([C@@H]6CCCN6C(=O)[C@@H](NC(=O)OC)C(C)C)n5)cc4)cc3)c[nH]1)SCCS2 [Example 13, methyl[(1S)-2-methyl-1-({(2S)-2-[4-(4′-{2-[(8S)-7-((2S)-2-{[(methyloxy)carbonyl]amino}butanoyl)-1,4-dithia-7-azaspiro[4.4]non-8-yl]-1H-imidazol-4-yl}-4-biphenylyl)-1H-imidazol-2-yl]-1-pyrrolidinyl}carbonyl)propyl]carbamate] | 63.1 pM | 3.98 pM
2 | COC(=O)N[C@H](C(=O)N1CCC[C@H]1c1ncc(-c2ccc(-c3ccc(-c4cnc(C5CCC6(CCOCC6)N5C(C)=O)[nH]4)cc3)cc2)[nH]1)C(C)C (stereo partly drawn) [Example 31, methyl ((1S)-1-{[(2S)-2-(4-{4′-[2-(1-acetyl-8-oxa-1-azaspiro[4.5]dec-2-yl)-1H-imidazol-4-yl]-4-biphenylyl}-1H-imidazol-2-yl)-1-pyrrolidinyl}carbonyl]-2-methylpropyl)carbamate] | 316 pM | 12.6 pM
3 | CNC(=O)N1CC2(CC(c3ncc(-c4ccc(-c5ccc(-c6cnc([C@@H]7CCCN7C(=O)[C@@H](NC(=O)OC)C(C)C)[nH]6)cc5)cc4)[nH]3)N(C(=O)[C@@H](NC(=O)OC)C(C)C)C2)C1 (stereo partly drawn) [Example 27, methyl [(1S)-2-methyl-1-({(2S)-2-[4-(4′-{2-[2-[(methylamino)carbonyl]-6-((2S)-3-methyl-2-{[(methyloxy)carbonyl]amino}butanoyl)-2,6-diazaspiro[3.4]oct-7-yl]-1H-imidazol-4-yl}-4-biphenylyl)-1H-imidazol-2-yl]-1-pyrrolidinyl}carbonyl)propyl]carbamate] | 6310 pM | 251 pM
4 | COC(=O)N[C@H](C(=O)N1CC2(C[C@H]1c1ncc(-c3ccc(-c4ccc(-c5cnc([C@@H]6CC7(CN6C(=O)[C@@H](NC(=O)OC)C(C)C)O[C@@H](C)C[C@H](C)O7)[nH]5)cc4)cc3)[nH]1)O[C@@H](C)C[C@H](C)O2)C(C)C (stereo partly drawn) [Example 3, dimethyl (4,4′-biphenyldiylbis{1H-imidazole-4,2-diyl[(3S,7S,9S)-7,9-dimethyl-6,10-dioxa-2-azaspiro[4.5]decane-3,2-diyl][(2S)-3-methyl-1-oxo-1,2-butanediyl]})biscarbamate] | 25100 pM | 15.8 pM
5 | COC(=O)N[C@H](C(=O)N1CCC[C@H]1c1ncc(-c2ccc(-c3ccc(-c4c[nH]c(C5CCC6(CCC(F)(F)CC6)N5C(=O)[C@@H](NC(=O)OC)C(C)C)n4)cc3)cc2)[nH]1)C(C)C (stereo partly drawn) [Example 32, methyl [(1S)-1-({(2S)-2-[4-(4′-{2-[8,8-difluoro-1-((2S)-3-methyl-2-{[(methyloxy)carbonyl]amino}butanoyl)-1-azaspiro[4.5]dec-2-yl]-1H-imidazol-4-yl}-4-biphenylyl)-1H-imidazol-2-yl]-1-pyrrolidinyl}carbonyl)-2-methylpropyl]carbamate] | 1580 pM | 15.8 pM
6 | COC(=O)N[C@@H](C)C(=O)N1C(c2nc(-c3ccc(-c4ccc(-c5cnc([C@@H]6CCCN6C(=O)[C@@H](NC(=O)OC)C(C)C)[nH]5)cc4)cc3)c[nH]2)CCC12CCC(F)(F)CC2 (stereo partly drawn) [Example 34, methyl ((1S)-2-{8,8-difluoro-2-[4-(4′-{2-[(2S)-1-((2S)-3-methyl-2-{[(methyloxy)carbonyl]amino}butanoyl)-2-pyrrolidinyl]-1H-imidazol-4-yl}-4-biphenylyl)-1H-imidazol-2-yl]-1-azaspiro[4.5]dec-1-yl}-1-methyl-2-oxoethyl)carbamate] | 631 pM | 10 pM
7 | COC(=O)N[C@H](C(=O)N1CC2(CC1c1ncc(-c3ccc(-c4ccc(-c5cnc([C@@H]6CCCN6C(=O)[C@@H](NC(=O)OC)C(C)C)[nH]5)cc4)cc3)[nH]1)CN(C(=O)OC)C2)C(C)C (stereo partly drawn) [Example 26, methyl 6-{N-[(methyloxy)carbonyl]-L-valyl}-7-(4-{4′-[2-((2S)-{N-[(methyloxy)carbonyl]-L-valyl}-2-pyrrolidinyl)-1H-imidazol-4-yl]-4-biphenylyl}-1H-imidazol-2-yl)-2,6-diazaspiro[3.4]octane-2-carboxylate] | 2000 pM | 50.1 pM
8 | COC(=O)N[C@H](C(=O)N1CC2(CCNCC2)CC1c1ncc(-c2ccc(-c3ccc(-c4cnc([C@@H]5CCCN5C(=O)[C@@H](NC(=O)OC)C(C)C)[nH]4)cc3)cc2)[nH]1)C(C)C (stereo partly drawn) [Example 20, methyl [(1S)-2-methyl-1-({(2S)-2-[4-(4′-{2-[2-((2S)-3-methyl-2-{[(methyloxy)carbonyl]amino}butanoyl)-2,8-diazaspiro[4.5]dec-3-yl]-1H-imidazol-4-yl}-4-biphenylyl)-1H-imidazol-2-yl]-1-pyrrolidinyl}carbonyl)propyl]carbamate] | > 31600 pM | 1580 pM
9 | COC(=O)N[C@H](C(=O)N1CCC[C@H]1c1ncc(-c2ccc(-c3ccc(-c4cnc([C@@H]5CC6(CN5C(=O)[C@@H](NC(=O)OC)C(C)C)OCCCO6)[nH]4)cc3)cc2)[nH]1)C(C)C [Example 6, methyl [(1S)-2-methyl-1-({(2S)-2-[4-(4′-{2-[(3S)-2-((2S)-3-methyl-2-{[(methyloxy)carbonyl]amino}butanoyl)-6,10-dioxa-2-azaspiro[4.5]dec-3-yl]-1H-imidazol-4-yl}-4-biphenylyl)-1H-imidazol-2-yl]-1-pyrrolidinyl}carbonyl)propyl]carbamate] | 25.1 pM | 7.94 pM
10 | COC(=O)N[C@H](C(=O)N1CC2(CCS(=O)(=O)CC2)CC1c1ncc(-c2ccc(-c3ccc(-c4cnc([C@@H]5CCCN5C(=O)[C@@H](NC(=O)OC)C(C)C)[nH]4)cc3)cc2)[nH]1)C(C)C (stereo partly drawn) [Example 16, methyl [(1S)-2-methyl-1-({(2S)-2-[4-(4′-{2-[2-((2S)-3-methyl-2-{[(methyloxy)carbonyl]amino}butanoyl)-8,8-dioxido-8-thia-2-azaspiro[4.5]dec-3-yl]-1H-imidazol-4-yl}-4-biphenylyl)-1H-imidazol-2-yl]-1-pyrrolidinyl}carbonyl)propyl]carbamate] | 398 pM | 39.8 pM
11 | COC(=O)N[C@H](C(=O)N1CC2(C[C@H]1c1ncc(-c3ccc(-c4ccc(-c5cnc([C@@H]6CC7(CN6C(=O)[C@@H](NC(=O)OC)C(C)C)OCCO7)[nH]5)cc4)cc3)[nH]1)OCCO2)C(C)C [Example 4, dimethyl (4,4′-biphenyldiylbis{1H-imidazole-4,2-diyl(8S)-1,4-dioxa-7-azaspiro[4.4]nonane-8,7-diyl[(2S)-3-methyl-1-oxo-1,2-butanediyl]})biscarbamate] | 39.8 pM | 10 pM
12 | COC(=O)N[C@H](C(=O)N1CCC[C@H]1c1ncc(-c2ccc(-c3ccc(-c4cnc([C@@H]5CC6(CN5C(=O)[C@@H](NC(=O)OC)C(C)C)O[C@H](C)[C@@H](C)O6)[nH]4)cc3)cc2)[nH]1)C(C)C [Example 10, methyl [(1S)-1-({(2S)-2-[4-(4′-{2-[(2R,3R,8S)-2,3-dimethyl-7-((2S)-3-methyl-2-{[(methyloxy)carbonyl]amino}butanoyl)-1,4-dioxa-7-azaspiro[4.4]non-8-yl]-1H-imidazol-5-yl}-4-biphenylyl)-1H-imidazol-2-yl]-1-pyrrolidinyl}carbonyl)-2-methylpropyl]carbamate] | 2000 pM | 10 pM
